Results reported in the supplement of paper PMC10627819.

How the values were obtained:
Assay in all cases: fitness (endpoint OD595 vs no drug) (fraction); higher = more growth
[1] = test system: B. subtilis 168
Outline: (§1)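 Fitness compares growth at the stationary-phase transition with the robust mean of no-drug control wells, as a ratio of optical densities. The ratio is capped at 1. Wells of 384-well plates held 30 µl, or 55 µl for S. pneumoniae, inoculated at OD595 0.01. Readings at OD595 every 30 min for 14 h at 37 °C were corrected against the first reading.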

[2] = test system: S. aureus Newman
Outline: as §1

[3] = test system: S. pneumoniae D39V
Outline: as §1
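Note: OD595 on entry to stationary phase over no-drug wells; at most 1.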

CC[C@H]1OC(=O)[C@H](C)[C@@H](O[C@H]2C[C@@](C)(OC)[C@@H](O)[C@H](C)O2)[C@H](C)[C@@H](O[C@@H]2O[C@H](C)C[C@H](N(C)C)[C@H]2O)[C@](C)(O)C[C@@H](C)CN(C)[C@H](C)[C@@H](O)[C@]1(C)O [Azithromycin] + O=C(O)[C@H]1/C(=C/CO)O[C@@H]2CC(=O)N21 [Clavulanic acid]
fitness, [1]
Details	partner 1.5 µg/mL	partner 3 µg/mL	partner 6 µg/mL
first compound 0.25 µg/mL	0.939	0.911	0.793
first compound 0.5 µg/mL	0.805	0.788	0.727

fitness, one replicate
Details	partner 0.03125 µg/mL	partner 0.0625 µg/mL	partner 0.125 µg/mL	partner 1.5 µg/mL	partner 3 µg/mL	partner 6 µg/mL
[1], first compound 2 µg/mL	–	–	–	0.0793	0.054	0.0121
[2], first compound 0.125 µg/mL	0.962	0.973	0.92	–	–	–
[2], first compound 0.25 µg/mL	0.902	0.998	0.893	–	–	–
[2], first compound 0.5 µg/mL	0.811	0.799	0.834	–	–	–

CC1=C(C(=O)O)N2C(=O)[C@@H](NC(=O)[C@H](N)c3ccccc3)[C@H]2SC1 [Cephalexin] + CO[C@@]12[C@H](COC(N)=O)C3=C(C(=O)C(C)=C(N)C3=O)N1C[C@@H]1N[C@@H]12 [Mitomycin C]
fitness
Details	first compound 0.25 µg/mL	first compound 0.5 µg/mL	first compound 1 µg/mL	first compound 2 µg/mL	first compound 4 µg/mL
[2], partner 0.0156 µg/mL	0.804	0.761	0.891	–	–
[2], partner 0.0312 µg/mL	0.732	0.724	0.705	–	–
[2], partner 0.0625 µg/mL	0.614	0.577	0.655	–	–
[3], partner 0.001075 µg/mL	–	–	0.662	0.188	0.0487
[3], partner 0.00215 µg/mL	–	–	0.639	0.146	0.0215
[3], partner 0.0043 µg/mL	–	–	0.604	0.173	0.05

fitness, [3], one replicate
Details	first compound 0.125 µg/mL	first compound 0.25 µg/mL	first compound 0.5 µg/mL
partner 0.002 µg/mL	0.806	0.757	0.732
partner 0.004 µg/mL	0.761	0.723	0.686
partner 0.008 µg/mL	0.607	0.615	0.608

O=C(O)[C@H]1/C(=C/CO)O[C@@H]2CC(=O)N21 [Clavulanic acid] + CC1=C(C(=O)O)N2C(=O)[C@@H](NC(=O)[C@H](N)c3ccccc3)[C@H]2SC1 [Cephalexin]
Details	fitness
[1], first compound 1.5 µg/mL, partner 0.125 µg/mL	0.904
[1], first compound 1.5 µg/mL, partner 0.25 µg/mL	0.927
[1], first compound 1.5 µg/mL, partner 0.5 µg/mL	0.889
[1], first compound 3 µg/mL, partner 0.125 µg/mL	0.878
[1], first compound 3 µg/mL, partner 0.25 µg/mL	0.818
[1], first compound 3 µg/mL, partner 0.5 µg/mL	0.793
[1], first compound 6 µg/mL, partner 0.125 µg/mL	0.772
[1], first compound 6 µg/mL, partner 0.25 µg/mL	0.76
[1], first compound 6 µg/mL, partner 0.5 µg/mL	0.723
[3], first compound 0.5 µg/mL, partner 2 µg/mL	0.0193
[3], first compound 0.5 µg/mL, partner 4 µg/mL	0.0187
[3], first compound 1 µg/mL, partner 2 µg/mL	0.171
[3], first compound 1 µg/mL, partner 4 µg/mL	0.203
[3], first compound 2 µg/mL, partner 1 µg/mL	0.104
[3], first compound 2 µg/mL, partner 2 µg/mL	0.0309
[3], first compound 2 µg/mL, partner 4 µg/mL	0.045

one replicate
Details	fitness
[1], first compound 1.5 µg/mL, partner 1 µg/mL	0.929
[1], first compound 3 µg/mL, partner 1 µg/mL	0.848
[1], first compound 6 µg/mL, partner 1 µg/mL	0.867
[2], first compound 0.03125 µg/mL, partner 0.5 µg/mL	≥ 1
[2], first compound 0.03125 µg/mL, partner 1 µg/mL	≥ 1
[2], first compound 0.03125 µg/mL, partner 2 µg/mL	≥ 1
[2], first compound 0.0625 µg/mL, partner 0.5 µg/mL	0.958
[2], first compound 0.0625 µg/mL, partner 1 µg/mL	0.986
[2], first compound 0.0625 µg/mL, partner 2 µg/mL	≥ 1
[2], first compound 0.125 µg/mL, partner 0.5 µg/mL	0.897
[2], first compound 0.125 µg/mL, partner 1 µg/mL	0.913
[2], first compound 0.125 µg/mL, partner 2 µg/mL	0.919
[3], first compound 0.5 µg/mL, partner 0.125 µg/mL	0.945
[3], first compound 0.5 µg/mL, partner 0.25 µg/mL	0.957
[3], first compound 0.5 µg/mL, partner 0.5 µg/mL	0.941
[3], first compound 1 µg/mL, partner 0.125 µg/mL	0.881
[3], first compound 1 µg/mL, partner 0.25 µg/mL	0.903
[3], first compound 1 µg/mL, partner 0.5 µg/mL	0.944
[3], first compound 2 µg/mL, partner 0.125 µg/mL	0.772
[3], first compound 2 µg/mL, partner 0.25 µg/mL	0.789
[3], first compound 2 µg/mL, partner 0.5 µg/mL	0.765

O=C(O)[C@H]1/C(=C/CO)O[C@@H]2CC(=O)N21 [Clavulanic acid] + CC1=C\[C@@H](O)CC(=O)Cc2nc(co2)C(=O)N2CCC=C2C(=O)O[C@H](C(C)C)[C@H](C)/C=C/C(=O)NC\C=C\1 [Virginiamycin M1]
fitness
Details	first compound 0.5 µg/mL	first compound 1 µg/mL	first compound 1.5 µg/mL	first compound 2 µg/mL	first compound 3 µg/mL	first compound 6 µg/mL
[1], partner 0.0625 µg/mL	–	–	0.935	–	0.877	0.809
[1], partner 0.125 µg/mL	–	–	0.917	–	0.895	0.7
[1], partner 0.25 µg/mL	–	–	0.927	–	0.841	0.822
[3], partner 0.5 µg/mL	0.991	0.935	–	0.918	–	–
[3], partner 1 µg/mL	≥ 1	0.958	–	0.867	–	–
[3], partner 2 µg/mL	0.957	0.904	–	0.796	–	–

fitness, one replicate
Details	first compound 0.03125 µg/mL	first compound 0.0625 µg/mL	first compound 0.125 µg/mL	first compound 0.5 µg/mL	first compound 1 µg/mL	first compound 2 µg/mL
[2], partner 0.0625 µg/mL	0.925	0.984	0.908	–	–	–
[2], partner 0.125 µg/mL	0.917	0.977	0.949	–	–	–
[2], partner 0.25 µg/mL	0.971	≥ 1	0.975	–	–	–
[3], partner 0.15 µg/mL	–	–	–	≥ 1	0.929	0.868
[3], partner 0.3 µg/mL	–	–	–	0.875	0.87	0.802

O=C(O)[C@H]1/C(=C/CO)O[C@@H]2CC(=O)N21 [Clavulanic acid] + CC(C1CCC(C(O1)OC2C(CC(C(C2O)OC3C(C(C(CO3)(C)O)NC)O)N)N)N)NC [Gentamicin]
main component drawn
Details	fitness
[1], first compound 1.5 µg/mL, partner 0.0625 µg/mL	0.884
[1], first compound 3 µg/mL, partner 0.0625 µg/mL	0.859
[1], first compound 6 µg/mL, partner 0.0625 µg/mL	0.737
[1], first compound 6 µg/mL, partner 0.25 µg/mL	0.118
[3], first compound 0.5 µg/mL, partner 2 µg/mL	0.96
[3], first compound 0.5 µg/mL, partner 4 µg/mL	0.955
[3], first compound 0.5 µg/mL, partner 8 µg/mL	0.932
[3], first compound 1 µg/mL, partner 2 µg/mL	0.902
[3], first compound 1 µg/mL, partner 4 µg/mL	0.896
[3], first compound 1 µg/mL, partner 8 µg/mL	0.885
[3], first compound 2 µg/mL, partner 2 µg/mL	0.795
[3], first compound 2 µg/mL, partner 4 µg/mL	0.8
[3], first compound 2 µg/mL, partner 8 µg/mL	0.787

fitness, [2], one replicate, main component drawn
Details	first compound 0.03125 µg/mL	first compound 0.0625 µg/mL	first compound 0.125 µg/mL
partner 1 µg/mL	0.92	0.947	0.872
partner 2 µg/mL	≥ 1	0.893	0.835
partner 4 µg/mL	0.768	0.566	0.388

O=C(O)[C@H]1/C(=C/CO)O[C@@H]2CC(=O)N21 [Clavulanic acid] + CCC[C@@H]1C[C@@H](C(=O)N[C@@H]([C@H]2O[C@H](SC)[C@H](O)[C@@H](O)[C@H]2O)[C@H](C)Cl)N(C)C1 [Clindamycin]
fitness, one replicate
Details	first compound 0.03125 µg/mL	first compound 0.0625 µg/mL	first compound 0.125 µg/mL	first compound 1.5 µg/mL	first compound 3 µg/mL	first compound 6 µg/mL
[1], partner 0.0039 µg/mL	–	–	–	0.957	0.974	0.931
[1], partner 0.0078 µg/mL	–	–	–	0.842	0.826	0.791
[1], partner 0.0156 µg/mL	–	–	–	0.836	0.763	0.739
[2], partner 0.0312 µg/mL	0.863	0.889	0.785	–	–	–
[2], partner 0.0625 µg/mL	0.544	0.518	0.402	–	–	–
[2], partner 0.125 µg/mL	0.38	0.375	0.282	–	–	–

fitness
Details	partner 0.0125 µg/mL	partner 0.015 µg/mL	partner 0.025 µg/mL	partner 0.03 µg/mL	partner 0.05 µg/mL	partner 0.06 µg/mL	partner 0.0625 µg/mL	partner 0.125 µg/mL	partner 0.25 µg/mL
[1], first compound 1.5 µg/mL	–	–	–	–	–	–	0.609	0.322	0.308
[1], first compound 3 µg/mL	–	–	–	–	–	–	0.404	0.313	0.26
[1], first compound 6 µg/mL	–	–	–	–	–	–	0.398	0.24	0.217
[3], first compound 0.5 µg/mL	0.779	0.789	0.511	0.516	0.134	0.305	–	–	–
[3], first compound 1 µg/mL	0.749	0.78	0.485	0.567	0.116	0.417	–	–	–
[3], first compound 2 µg/mL	0.683	0.566	0.407	0.399	0.101	0.245	–	–	–
